Reference: ChEMBL document CHEMBL5096221, “Discovery of a Highly Potent and Orally Bioavailable STAT3 Dual Phosphorylation Inhibitor for Pancreatic Cancer Treatment” (J Med Chem, 2022)
The source made the active and inactive calls. No cut-off for these calls is given here.

What was measured:
[1] = target: T1, Signal transducer and activator of transcription 3 (Homo sapiens, UniProt P40763); assay: Inhibition of STAT3 in human Capan-2 cells assessed as reduction of Cyclin D1 expression at 1 to 30 nM incubated for 22 to 24 hrs by western blot analysis; assay type: cell-based; settings: dose 1-30 nM, time 22-24 hrs, DDE = dose-dependent effect
T1 sequence (P40763 whole entry): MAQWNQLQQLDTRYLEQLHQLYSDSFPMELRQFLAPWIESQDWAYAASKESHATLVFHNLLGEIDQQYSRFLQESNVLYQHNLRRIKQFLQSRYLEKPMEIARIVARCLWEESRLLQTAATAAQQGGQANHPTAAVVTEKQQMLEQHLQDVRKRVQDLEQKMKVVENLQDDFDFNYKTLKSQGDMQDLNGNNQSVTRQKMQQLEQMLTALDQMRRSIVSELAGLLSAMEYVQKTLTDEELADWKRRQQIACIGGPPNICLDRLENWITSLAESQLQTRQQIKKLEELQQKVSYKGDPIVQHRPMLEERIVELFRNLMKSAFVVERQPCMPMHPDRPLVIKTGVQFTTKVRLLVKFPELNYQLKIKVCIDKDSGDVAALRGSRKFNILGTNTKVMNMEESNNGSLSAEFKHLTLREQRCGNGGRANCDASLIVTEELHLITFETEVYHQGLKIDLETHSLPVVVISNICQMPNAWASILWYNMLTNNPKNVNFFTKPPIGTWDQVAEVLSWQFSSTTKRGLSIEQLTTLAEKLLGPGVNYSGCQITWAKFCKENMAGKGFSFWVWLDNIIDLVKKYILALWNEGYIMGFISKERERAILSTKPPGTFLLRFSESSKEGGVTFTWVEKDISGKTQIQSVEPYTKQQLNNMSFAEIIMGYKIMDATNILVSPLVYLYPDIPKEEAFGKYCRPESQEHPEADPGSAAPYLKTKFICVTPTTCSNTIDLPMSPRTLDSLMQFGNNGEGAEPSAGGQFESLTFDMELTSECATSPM

[2] = AUC (0-24hrs) in BALB/c mouse at 10 mg/kg,po measured upto 24 hrs by LC-MS/MS analysis; assay type: ADME, organism-based; set-up: dose 10 mg/kg, time < 24 hrs, route po; settings: in vivo
[3] = target: T1, Signal transducer and activator of transcription 3; assay: Inhibition of STAT3 in human BXPC-3 cells assessed as reduction of c-Myc expression at 30 nM incubated for 4 to 24 hrs by western blot analysis; assay type: cell-based; settings: time 4-24 hrs, TDE = time-dependent effect
[4] = target: Mitogen-activated protein kinase 3 (Homo sapiens, UniProt P27361); assay: Inhibition of ERK1 (unknown origin)
Chain of Mitogen-activated protein kinase 3 (P27361 whole entry): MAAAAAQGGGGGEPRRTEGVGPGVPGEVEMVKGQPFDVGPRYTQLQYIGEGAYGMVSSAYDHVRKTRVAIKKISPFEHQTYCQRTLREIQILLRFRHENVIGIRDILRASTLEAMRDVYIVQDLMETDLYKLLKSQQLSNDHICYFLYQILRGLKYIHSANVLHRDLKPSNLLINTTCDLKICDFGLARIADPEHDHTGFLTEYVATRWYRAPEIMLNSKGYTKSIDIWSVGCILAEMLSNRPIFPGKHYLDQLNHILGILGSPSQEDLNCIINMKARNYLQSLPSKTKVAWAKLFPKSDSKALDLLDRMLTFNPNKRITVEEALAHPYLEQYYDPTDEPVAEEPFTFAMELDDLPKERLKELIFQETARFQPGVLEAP

Cytochrome P450 2C9 = Cytochrome P450 2C9 (Homo sapiens, UniProt P11712); assay: Inhibition of CYP2C9 in human liver microsomes using tolbutamide as substrate incubated for 60 mins in presence of NADPH by HPLC analysis; assay type: ADME, Microsome
Chain of Cytochrome P450 2C9 (P11712 whole entry): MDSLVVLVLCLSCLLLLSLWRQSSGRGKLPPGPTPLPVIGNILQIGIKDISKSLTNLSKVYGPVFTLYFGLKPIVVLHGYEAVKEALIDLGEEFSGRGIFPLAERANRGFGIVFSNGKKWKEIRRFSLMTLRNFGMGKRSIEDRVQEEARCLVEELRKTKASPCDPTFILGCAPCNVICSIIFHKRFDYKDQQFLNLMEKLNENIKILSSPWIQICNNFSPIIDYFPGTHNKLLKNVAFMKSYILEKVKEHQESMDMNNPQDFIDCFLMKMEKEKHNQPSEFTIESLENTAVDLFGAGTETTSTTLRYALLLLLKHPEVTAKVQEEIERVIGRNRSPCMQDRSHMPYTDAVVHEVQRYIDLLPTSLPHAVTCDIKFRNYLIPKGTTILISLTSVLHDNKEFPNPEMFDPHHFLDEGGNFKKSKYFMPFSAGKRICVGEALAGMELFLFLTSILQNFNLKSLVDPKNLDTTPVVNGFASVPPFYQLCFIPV

[5] = target: T1, Signal transducer and activator of transcription 3; assay: Inhibition of STAT3 in human BXPC-3 cells assessed as inhibition of IL-6 stimulated STAT3 nuclear translocation by immunofluorescent assay; assay type: cell-based
[6] = target: T1, Signal transducer and activator of transcription 3; assay: Inhibition of STAT3 in human HEK293T cells assessed as inhibition of IL-6 stimulated STAT3 phosphorylation by dual-luciferase reporter assay; assay type: cell-based
[7] = MRT (0 to last) in BALB/c mouse at 10 mg/kg,po measured upto 24 hrs by LC-MS/MS analysis; assay type: ADME, organism-based; settings: in vivo
[8] = target: T1, Signal transducer and activator of transcription 3; assay: Inhibition of STAT3 in human Capan-2 cells assessed as inhibition of STAT3 phosphorylation at Ser 727 at 1 to 30 nM incubated for 22 to 24 hrs by western blot analysis; assay type: cell-based; settings: dose 1-30 nM, time 22-24 hrs, DDE = dose-dependent effect
[9] = Toxicity in BALB/c mouse xenografted with human BXPC-3 cells assessed as effect on lung at 10 mg/kg,po administrated once daily for 8 weeks by H and E staining based microscopic analysis; assay type: organism-based; settings: in vivo, 1344 h

- inhibition [1]: Dde
- AUC(0-t) at 24 h [2]: 27600 ng·h/mL
- inhibition [3]: Tde
- IC50 [4]: > 10 µM
- IC50 (Cytochrome P450 2C9): > 50 µM
- inhibition [5]: Active
- IC50 [6]: 0.0053 µM
- MRT last at 24 h [7]: 9.8 h
- inhibition [8]: Dde
SMILES: COc1ccc(-c2noc(-c3cnc(Oc4ccc5cc(C(=O)N6CCN(Cc7ccc(OCC(F)(F)F)cc7)CC6)n(C)c5c4)cn3)n2)cc1
- Activity [9]: Non-Toxic
